Experimental data as given in patent EP3694851B1, “ENVIRONMENTALLY DEGRADABLE QUINOLONE ANTIBIOTICS HAVING A HEMIAMINAL STRUCTURAL UNIT” (priority 2017, dated 2019).
≈ marks a conversion by molar mass, not a printed value.

Tests used:
[1] = tested on: Escherichia coli K12 ATCC 23716; experiment: Growth inhibition in E. coli (96-well plate, 4 h at 37°C, absorption at 600 nm); assay type: cell-based; conditions: ATCC23716, 4 h, E. coli (ATCC 23716), activity in the range of medium-strength fluoroquinolones, Figure 4
Description: Escherichia coli K12 ATCC 23716 wurde von DSMZ GmbH (Braunschweig, Germany) erhalten.
Die Testsubstanzen wurden in Wasser verdünnt und auf einer 96-well-Platte zur Bakteriensuspension (in 2x Bakterienmedium (10 g Pepton and 6 g Fleischextrakt in 1 Liter)) gegeben, so dass die Endkonzentration des Mediums 1x war. Die Platte wurde 4h bei 37°C inkubiert. Die Zelldichte wurde photometrisch durch Messung der Absorption bei 600 nm bestimmt. Die Wachstumshemmung in Prozent der unbehandelten Kontrollen gegen die Konzentration der Testsubstanz aufgetragen.

[2] = tested on: E. faecalis ATCC 29121, P. aeruginosa ATCC 27853, S. aureus ATCC 29213, E. coli ATCC 25922, S. aureus ATCC 43300, K. pneumoniae ATCC 700603, A. baumanii ATCC …; experiment: Minimal inhibitory concentrations in various bacterial strains (broth microdilution); assay type: cell-based
Excerpt: Minimale Hemmkonzentrationen in verschiedenen Bakterienstämmen: Die antibiotische Aktivität wurde mittels Durchführung der Broth-Mikroverdünnungsmethode ermittelt (Cockerill et al., 2012, siehe Literatur). Es wurden die folgenden Bakterienstämme verwendet: Staphylococcus aureus (ATCC 29213), Enterococcus faecalis (ATCC 29212), Escherichia coli (ATCC 25922) und Pseudomonas aeruginosa (ATCC 27853), sowie S. aureus (ATCC 43300), K. pneumoniae (ATCC 700603), A. baumanii (ATCC 19606). Die Bestimmungen der minimalen Hemmkonzentrationen wurden durch zwei unabhängige Laboratorien durchgeführt.
Bakterienzellen wurden bei einer Zelldichte von 2 - 8 × 10^5 cfu/ml in 200 µl Mueller-Hinton-Brothmedium verdünnt. Die Ansätze enthielten eine Verdünnungsreihe der Testsubstanzen. Diese inokulierten 96-well Platten wurden für 18 h bei 36°C inkubiert. Die minimale Hemmkonzentration wurde ermittelt durch visuelle Abschätzung der niedrigsten Konzentration, die die Bakterien vollständig gehemmt hatte.

[3] = Abiotic hydrolysis (pH-dependent, phosphate-buffered saline, HPLC); conditions: for Abspaltung des labilen Linkers: Figures 6a and 6b; for Abbau des Hemiaminal-Restes: within 7 days
Description: Der pH-Wert wurde auf pH 6, pH 7,4 oder pH 9 eingestellt. Die Ansätze wurden bei 37 °C für pH 6 und 7,4 und bei Raumtemperatur für pH 9 unter Schütteln (250 rpm) für 28 Tage inkubiert. An Tag 0, 1, 7, 14, 21 und 28 wurden Proben (700µL) für die HPLC Analyse entnommen. Der Quotient der Ausgangskonzentration co durch die Konzentration am jeweiligen Zeitpunkt (ct) wurde kalkuliert und als natürlicher Logarithmus gegen die Inkubationszeit aufgetragen.
Eine NUCLEODUR® RP-C18 (CC 125/4 100-5µm C18 ec) Säule und mobile Phasen bestehend aus 0.1 % Ameisensäure in hochreinem Wasser (CH2O2: Solution A) and 100 % Acetonitril (CH3CN: Solution B) wurden verwendet. Die Flußrate wurde auf 0.5 mL min^-1 eingestellt. Die Temperatur des Säulenofens wurde auf 25 °C eingestellt und das Injektionsvolumen betrug 10 µL. […] Die Testsubstanzen wurden durch einen UV/Vis Detektor bei 270 nm detektiert. Die Fließgradientenmethode wurde angewendet wie in Tabelle 1 aufgelistet. Tabelle 1 : Fließgradientenbedingungen zur chromatographischen Analyse der Testsubstanzen

[4] = tested on: Humane embryonale Nierenzellen (HEK293); experiment: Cytotoxicity test in HEK293 cells; assay type: cell-based, human; conditions: Figure 3
Description: Humane embryonale Nierenzellen (HEK293) wurden in 384-well-Platten mit einer Dichte von 6000 Zellen/well in einem finalen Volumen von 50 µl mit der gewünschten Konzentration der Testsubstanz ausgesät. DMEM mit 10% fötalem Rinderserum (FBS) wurde als Wachstumsmedium verwendet. Die Zellen wurden zusammen mit den Testsubstanzen für 20 h bei 37 °C mit 5% COz inkubiert.

[5] = tested on: Vibrio fischeri NRRL-B-11177; experiment: Luminescence inhibition in V. fischeri (luminescent bacteria test); assay type: cell-based; conditions: after cleavage of the linker, compared with Verbindung 1; Figure 5
Excerpt: Die antibiotische Aktivität in V. fischeri wurden in einem Leuchtbakterientest (LBT) mit Vibrio fischeri NRRL-B-11177 (Hach-Lange GmbH, Düsseldorf, Germany) untersucht. Die Durchführung des LBT erfolgte nach dem modifizierten Protokoll von Menz et al. (2013), siehe Literaturliste.

[6] = Stability test at low pH (Marbofloxacin); assay type: physicochemical

Q: For `O=C(O)c1cn(C2CCCO2)c2cc(N3CCNCC3)c(F)cc2c1=O` (stereo not drawn) [Verbindung 1], which MIC [1] is on record?
A: The MIC was 0.1 to 1 µg/mL (≈ 0.277 to 2.77 µM).

Q: What about the “Aktivität in anderen pathogenen Bakterien” value ([2]; other pathogenic bacteria, compared with quinolone generations) of the same compound?
A: The value was “über den Chinolonen der ersten Generation, aber unterhalb etablierter Fluorchinolone der zweiten Generation”.

Q: What about the “antibakterielle Aktivität” value ([2]; strains of E. coli, K. pneumoniae, P. aeruginosa and V. fischeri, compared with medium-strength fluoroquinolones) of the same compound?
A: Its value is “zu mittelstarken Fluorchinolonen eine vergleichbare antibakterielle Aktivität”.

Q: And the “Abspaltung des labilen Linkers” value ([3]; at low pH)?
A: Its value is “schnell”.

Q: What about the “Abbau des Hemiaminal-Restes” value ([3]; low pH of four (e.g. in urine)) of the same compound?
A: Its value is “zum größten Teil abgebaut”.

Q: What about the “Abbau des Hemiaminal-Restes” value ([3]; physiological conditions (pH= 7,4)) of the same compound?
A: The value was “nur langsam abgebaut”.

Q: What about the “Abspaltung des labilen Linkers” value ([3]; under physiological conditions) of the same compound?
A: The value was “langsam”.

Q: What about the “Zytotoxizität in humanen Zellen (HEK 293)” value [4] of the same compound?
A: The value was “keine Hinweise auf einen Zytotoxizität”.

Q: For `O=C(O)c1cnc2cc(N3CCNCC3)c(F)cc2c1O` [Cip-d-CP, reference compound], which “antibiotische Aktivität (MHK) im Vergleich zur Ausgangssubstanz” value ([2]; fragment after cleavage of the linker compared with Verbindung 1, Figures 2 and 3) is on record?
A: Its value is “deutlich schwächer aktiv als die Ausgangssubstanz”.

Q: And the “antibiotische Aktivität in V. fischeri (Leuchthemmung)” value [5]?
A: The value was “deutliche Abschwächung der antibiotischen Aktivität nach Abspaltung des Linkers”.

Q: What about the “Instabilität unter den gewählten pH-Bedingungen” value ([3]; chosen pH conditions (pH 6, pH 7,4 at 37°C; pH 9 at room temperature; 28 days)) of the same compound?
A: Its value is “Weder das verbleibende Fragment noch die Ausgangssubstanz Ciprofloxacin waren unter den gewählten pH-Bedingungen instabil”.

Q: For `CN1CCN(c2c(F)cc3c(=O)c(C(=O)O)cn4c3c2OCN4C)CC1` [Marbofloxacin], which “Instabilität bei niedrigem pH” value [6] is on record?
A: The value was “kaum Instabilität beobachtet”.
